One assay concerns the target T1, Human HEX B (Homo sapiens, UniProt P07686).
T1 construct: Hex B protein (isolated from human placenta) was purchased from Sigma Co; purchased Sigma Co; host or cells: human placenta
Nature of the assay: Michaelis-Menten/Lineweaver-Burk kinetic inhibition of Hex B with 4MU-NAG substrate. The format is biochemical. Here is the method: Hex B protein (isolated from human placenta) was purchased from Sigma Co.
Both O-GlcNAcase and Hex B were subjected to Michaelis-Menton kinetic analysis to determine the kinetics of their enzymatic activity in the presence of absence of Compounds 1-5 and Compound ix, using 4-methylumbelliferyl-N-acetyl-β-D-glucosaminide (4MU-NAG; purchased from Sigma Co.) as the substrate (a fluorogenic substrate). The reaction conditions for each enzyme are shown below:
Hex B: reaction mixture (0.1 nM Hex B (200 μL), 50 mM NaH2PO4, 100 mM NaCl, 0.1% BSA, 0.05-1.5 mM substrate, pH 6.5) was incubated at 30° C. for 25 minutes. The reaction was terminated by addition of a 3× quenching buffer (200 mM sodium glycine buffer, pH 10.8). The enzyme activity was determined as described above.
To determine the effects of Compounds 1-5 and Compound ix on the kinetics of both enzymes, the enzyme reactions described above were performed in the presence of each compound at different concentrations. In these reactions, the substrate concentrations were three to five fold of the concentration used for determining KM (absent compounds) and the ratio between the enzyme and the compound was 0.1-0.5 nM to 0.3 nM-200 uM. The data thus obtained were analyzed by the Lineweaver-Burk plot. The K1 values were determined by the double reciprocal plot (1/V vs. 1/[S]). More specifically, the Km values for each enzyme in the presence of one of the test compounds first determined and these values were further plotted in view of the concentrations of the compound. K1 was determined by calculating the negative value of the resulting x-intercept. The selectivity of each compound was calculated by the formula: K1 O-GlcNAcase/K1 Hex B.

Assay [1] concerns BV2 cells (mouse microglia cells). Kind of assay: GM2 ganglioside accumulation in BV2 microglia cells by Western blot. The format is cell-based. To be noted: different concentrations, 16 hr, Western blot with anti-Ganglioside asialo GM2 antibody. The protocol:
BV2 cells (mouse microglia cells) were cultured in DMEM for 24 hr in 60-mm tissue culture dishes. The cells were washed once with PBS (pH 7.4), and 2 mL of fresh medium with or without biotin conjugated Compound 5 (at different concentrations) was added to each dish. After being incubated in a 5% CO2 incubator at 37° C. for 16 hr, the BV2 cells were harvested, re-suspended in a solution containing PBS and 2×SDS lysis buffer (250 mM Tris, pH 6.8/4% SDS/20% glycerol/0.002% bromophenol blue/10% 2-mercaptoethanol) at a ratio of 1:1 to produce whole cell lysates. The cell lysates were boiled and then subjected to SDS-PAGE (15%) using a mini-gel apparatus (Biorad, Germany). Substances contained in the gel were transferred to a nitrocellulose membrane (Millipore) at 1 mA/cm^2 using a semidry blot system (Biorad, Germany). The membrane was blocked with a Tris-buffered saline (TBST) (50 mM Tris-HCl, pH 7.5; 150 mM NaCl; 0.1% Tween-20) containing 5% skim-milk and then blotted with an anti-Ganglioside asialo GM2 antibody and an anti-GAPDH antibody.
For orientation: A western blot detects proteins with antibodies after separation by electrophoresis.

In another assay the target is T2, human Hex B (FLAG-HexB) (Homo sapiens, UniProt P07686).
T2 construct: FLAG (N); expressed in transfected cells
T2 sequence (P07686 122-556): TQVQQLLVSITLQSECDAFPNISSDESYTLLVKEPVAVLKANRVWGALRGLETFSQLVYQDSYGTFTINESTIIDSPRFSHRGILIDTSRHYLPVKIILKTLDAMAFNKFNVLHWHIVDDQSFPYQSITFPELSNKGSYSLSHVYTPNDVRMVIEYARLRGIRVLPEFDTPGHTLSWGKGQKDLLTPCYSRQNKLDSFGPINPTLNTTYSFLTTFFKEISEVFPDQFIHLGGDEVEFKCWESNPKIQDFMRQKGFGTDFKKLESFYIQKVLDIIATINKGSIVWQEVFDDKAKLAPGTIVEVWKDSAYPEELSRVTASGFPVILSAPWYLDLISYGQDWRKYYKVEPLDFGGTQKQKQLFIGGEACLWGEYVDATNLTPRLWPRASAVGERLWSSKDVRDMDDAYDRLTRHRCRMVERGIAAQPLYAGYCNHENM
Nature of the assay: Immunoprecipitation / streptavidin pull-down and Western blot from 293T/FLAG-HexB cell lysate. The format is binding. To be noted: 200 nM, room temperature 10 min. Here is the method: A DNA fragment encoding human Hex B was amplified by PCR and cloned into pCMV-Tag 2B vector (Stratagene) to produce FLAG-tagged HexB expression plasmid (pFLAG-HexB). This plasmid was introduced into 293T cells to establish a cell line stably expressing FLAG-HexB. Briefly, 293T cells were maintained in Dulbecco's modified Eagle's medium (DMEM) supplemented with 10% (by volumn) heat inactivated fetal bovine serum (FBS), 2 mM glutamine, 100 units/mL penicillin and 100 μg/mL streptomycin at 37° C. in a 5% CO2 atmosphere. These cells were transfected with expression plasmid pFLAG-HexB and plasmid pBabe-puro (carrying a puromycin resistance gene) at a molar ratio of 30-40:1. 8 hours later, the transfected cells were fed with fresh medium and incubated for 16 h. These cells were then cultured in puromycin-containing (2 μg/mL) medium for 2-3 weeks to screen for puromycin-resistant clones.
Binding of Compound 5 to FLAG-HexB were further confirmed by immuno-precipitation and Westernblot assays. The 293T/FLAG-HexB cells were lysed with a lysis buffer containing 1% NP-40, 10 mM Tris-HCl at pH 7.4, 150 mM NaCl, 2 mM EDTA, 1 mM phenylmethylsulfonyl fluoride, and a proteinase inhibitor cocktail (Sigma), and the cell lysate was then incubated at room temperature for 10 min in the presence or absence of Compound 5 (200 nM). […]

Each structure is given as a SMILES string.

T1 sequence (P07686 50-107 partner limits assumed, one chain of several): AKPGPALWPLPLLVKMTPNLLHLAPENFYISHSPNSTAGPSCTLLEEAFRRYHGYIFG

The term Ki denotes the dissociation constant of the complex between target and ligand, obtained from inhibition or displacement. Regarding `CC(=O)NC1CN(CCCCCCCNC(=O)CCCCC2SCC3NC(=O)NC32)C(CO)C(O)C1O` (stereo not shown) [Compound 5], the Ki on Human HEX B (Table 1) and at Human HEX B (Table 2) was 26.7 ± 1.11 nM in each case. Moreover, the “ganglioside GM2 accumulation” value in assay [1] is listed as “accumulated in Compound 5-treated BV2 cells in a dose-dependent manner”. Moreover, the “association of FLAG-HexB with compound (streptavidin-agarose beads)” value on human Hex B (FLAG-HexB) is reported as “FLAG-HexB protein was attached to the streptavidin-agarose beads”.

For the origin of these results see patent US8466291B2, “1,5-dideoxy-1,5-imino-D-glucitol compounds” (Academia Sinica, priority 2008, dated 2013).
